Source: paper PMC8084583, “Monobenzone, a Novel and Potent KDM1A Inhibitor, Suppresses Migration of Gastric Cancer Cells” (Frontiers in Pharmacology, 2021)

Molecular target: KDM1A (Homo sapiens, UniProt O60341)
Experiment: HRP-coupled fluorometric demethylase assay with recombinant KDM1A (H2O2/HRP counter-screen); dialysis and dilution reversibility; cell thermal shift in MGC-803
Assay type: biochemical

Work on `Oc1ccc(OCc2ccccc2)cc1` [monobenzone] yielded an IC50 of 0.451 µM.
